{"source": "patent US7009045B2", "about": "(priority 2000, dated 2006)", "key": {"[1]": {"system": "Candida famata regulatory mutants able to overproduce riboflavin", "experiment": "Sensitivity to copper ions, solid Burkholder medium (Table 12)", "format": "cell-based", "design": "key: +++: strong growth; ++: weak growth; —: absence of growth", "method": "(§1) The sensitivity of the regulatory mutants of the yeast C. famata which overproduce riboflavin in iron rich medium probably due to defects in genes regulating repression (repression mutants), to different ions of heavy metals was studied. For this, the analyzed strains were streaked on the YPD plates and then were replica-plated on Burkholder synthetic medium containing leucine (40 μg/ml). The C.famata mutants L20105-40-1-11, L20105-40-1-17, L20105-3-2-1, L20105-3-2-8 and L20105-3-2-12 (all contained leu2 marker) accumulated 80–100 μg riboflavin/ml. The mutants #75, 4-48, 2-5 produced much higher amounts of riboflavin (200–250 μg/ml) but were prototrophs for leucine synthesis. Strain #75 was characterized by retarded growth comparing with other mutants. The strains VKM Y-9 (wild type) and L20105 (leu2) were used as the control strains.\nMutants overproducing lower amounts of riboflavin appeared to be more sensitive to CuSO4 (0.15 mM) than that of the strains producing higher amounts of riboflavin (inhibitory concentration 0.5 mM) (Table 12)."}, "[2]": {"system": "Candida famata regulatory mutants able to overproduce riboflavin", "experiment": "Sensitivity to K2Cr2O7, solid Burkholder medium with 0.3 M sucrose (Table 13)", "format": "cell-based", "method": "as §1"}}, "data": [{"smiles": "O=S(=O)([O-])[O-].[Cu+2]", "note": "[CuSO4]", "values": [{"measurement": "growth", "setting": "[1]; #2-5, Cu^+2 0.05 mM", "result": "+++"}, {"measurement": "growth", "setting": "[1]; #2-5, Cu^+2 0.1 mM", "result": "+++"}, {"measurement": "growth", "setting": "[1]; #2-5, Cu^+2 0.15 mM", "result": "+++"}, {"measurement": "growth", "setting": "[1]; #2-5, Cu^+2 0.2 mM", "result": "+++"}, {"measurement": "growth", "setting": "[1]; #2-5, Cu^+2 0.25 mM", "result": "+++"}, {"measurement": "growth", "setting": "[1]; #2-5, Cu^+2 0.3 mM", "result": "++"}, {"measurement": "growth", "setting": "[1]; #2-5, Cu^+2 0.35 mM", "result": "++"}, {"measurement": "growth", "setting": "[1]; #2-5, Cu^+2 0.5 mM", "result": "—"}, {"measurement": "growth", "setting": "[1]; #2-5, Cu^+2 0.55 mM", "result": "—"}, {"measurement": "growth", "setting": "[1]; #2-5, Cu^+2 0.6 mM", "result": "—"}, {"measurement": "growth", "setting": "[1]; #2-5, Cu^+2 0.65 mM", "result": "—"}, {"measurement": "growth", "setting": "[1]; #2-5, Cu^+2 0.7 mM", "result": "—"}, {"measurement": "growth", "setting": "[1]; #2-5, Cu^+2 0.75 mM", "result": "—"}, {"measurement": "growth", "setting": "[1]; #2-5, Cu^+2 4 mM", "result": "++"}, {"measurement": "growth", "setting": "[1]; #2-5, Cu^+2 8 mM", "result": "—"}, {"measurement": "growth", "setting": "[1]; #4-48, Cu^+2 0.05 mM", "result": "+++"}, {"measurement": "growth", "setting": "[1]; #4-48, Cu^+2 0.1 mM", "result": "+++"}, {"measurement": "growth", "setting": "[1]; #4-48, Cu^+2 0.15 mM", "result": "+++"}, {"measurement": "growth", "setting": "[1]; #4-48, Cu^+2 0.2 mM", "result": "+++"}, {"measurement": "growth", "setting": "[1]; #4-48, Cu^+2 0.25 mM", "result": "+++"}, {"measurement": "growth", "setting": "[1]; #4-48, Cu^+2 0.3 mM", "result": "++"}, {"measurement": "growth", "setting": "[1]; #4-48, Cu^+2 0.35 mM", "result": "++"}, {"measurement": "growth", "setting": "[1]; #4-48, Cu^+2 0.5 mM", "result": "—"}, {"measurement": "growth", "setting": "[1]; #4-48, Cu^+2 0.55 mM", "result": "—"}, {"measurement": "growth", "setting": "[1]; #4-48, Cu^+2 0.6 mM", "result": "—"}, {"measurement": "growth", "setting": "[1]; #4-48, Cu^+2 0.65 mM", "result": "—"}, {"measurement": "growth", "setting": "[1]; #4-48, Cu^+2 0.7 mM", "result": "—"}, {"measurement": "growth", "setting": "[1]; #4-48, Cu^+2 0.75 mM", "result": "—"}, {"measurement": "growth", "setting": "[1]; #4-48, Cu^+2 4 mM", "result": "++"}, {"measurement": "growth", "setting": "[1]; #4-48, Cu^+2 8 mM", "result": "—"}, {"measurement": "growth", "setting": "[1]; #75, Cu^+2 0.05 mM", "result": "+++"}, {"measurement": "growth", "setting": "[1]; #75, Cu^+2 0.1 mM", "result": "+++"}, {"measurement": "growth", "setting": "[1]; #75, Cu^+2 0.15 mM", "result": "+++"}, {"measurement": "growth", "setting": "[1]; #75, Cu^+2 0.2 mM", "result": "+++"}, {"measurement": "growth", "setting": "[1]; #75, Cu^+2 0.25 mM", "result": "+++"}, {"measurement": "growth", "setting": "[1]; #75, Cu^+2 0.3 mM", "result": "++"}, {"measurement": "growth", "setting": "[1]; #75, Cu^+2 0.35 mM", "result": "++"}, {"measurement": "growth", "setting": "[1]; #75, Cu^+2 0.5 mM", "result": "—"}, {"measurement": "growth", "setting": "[1]; #75, Cu^+2 0.55 mM", "result": "—"}, {"measurement": "growth", "setting": "[1]; #75, Cu^+2 0.6 mM", "result": "—"}, {"measurement": "growth", "setting": "[1]; #75, Cu^+2 0.65 mM", "result": "—"}, {"measurement": "growth", "setting": "[1]; #75, Cu^+2 0.7 mM", "result": "—"}, {"measurement": "growth", "setting": "[1]; #75, Cu^+2 0.75 mM", "result": "—"}, {"measurement": "growth", "setting": "[1]; #75, Cu^+2 4 mM", "result": "++"}, {"measurement": "growth", "setting": "[1]; #75, Cu^+2 8 mM", "result": "—"}, {"measurement": "growth", "setting": "[1]; L20105 (leu2), Cu^+2 0.45 mM", "result": "++"}, {"measurement": "growth", "setting": "[1]; L20105 (leu2), Cu^+2 0.5 mM", "result": "++"}, {"measurement": "growth", "setting": "[1]; L20105 (leu2), Cu^+2 0.55 mM", "result": "++"}, {"measurement": "growth", "setting": "[1]; L20105-3-2-4, Cu^+2 0.15 mM", "result": "—"}, {"measurement": "growth", "setting": "[1]; L20105-3-2-4, Cu^+2 0.2 mM", "result": "—"}, {"measurement": "growth", "setting": "[1]; L20105-3-2-4, Cu^+2 0.25 mM", "result": "—"}, {"measurement": "growth", "setting": "[1]; L20105-3-2-4, Cu^+2 0.35 mM", "result": "—"}, {"measurement": "growth", "setting": "[1]; L20105-3-2-4, Cu^+2 0.45 mM", "result": "—"}, {"measurement": "growth", "setting": "[1]; L20105-3-2-4, Cu^+2 0.5 mM", "result": "—"}, {"measurement": "growth", "setting": "[1]; L20105-3-2-4, Cu^+2 0.55 mM", "result": "—"}, {"measurement": "growth", "setting": "[1]; L20105-3-2-4, Cu^+2 0.6 mM", "result": "—"}, {"measurement": "growth", "setting": "[1]; L20105-3-2-4, Cu^+2 0.65 mM", "result": "—"}, {"measurement": "growth", "setting": "[1]; L20105-3-2-4, Cu^+2 0.7 mM", "result": "—"}, {"measurement": "growth", "setting": "[1]; L20105-3-2-4, Cu^+2 0.75 mM", "result": "—"}, {"measurement": "growth", "setting": "[1]; L20105-3-2-4, Cu^+2 4 mM", "result": "—"}, {"measurement": "growth", "setting": "[1]; L20105-3-2-8, Cu^+2 0.05 mM", "result": "++"}, {"measurement": "growth", "setting": "[1]; L20105-3-2-8, Cu^+2 0.15 mM", "result": "—"}, {"measurement": "growth", "setting": "[1]; L20105-3-2-8, Cu^+2 0.2 mM", "result": "—"}, {"measurement": "growth", "setting": "[1]; L20105-3-2-8, Cu^+2 0.25 mM", "result": "—"}, {"measurement": "growth", "setting": "[1]; L20105-3-2-8, Cu^+2 0.3 mM", "result": "—"}, {"measurement": "growth", "setting": "[1]; L20105-3-2-8, Cu^+2 0.35 mM", "result": "—"}, {"measurement": "growth", "setting": "[1]; L20105-3-2-8, Cu^+2 0.45 mM", "result": "—"}, {"measurement": "growth", "setting": "[1]; L20105-3-2-8, Cu^+2 0.5 mM", "result": "—"}, {"measurement": "growth", "setting": "[1]; L20105-3-2-8, Cu^+2 0.55 mM", "result": "—"}, {"measurement": "growth", "setting": "[1]; L20105-3-2-8, Cu^+2 0.6 mM", "result": "—"}, {"measurement": "growth", "setting": "[1]; L20105-3-2-8, Cu^+2 0.65 mM", "result": "—"}, {"measurement": "growth", "setting": "[1]; L20105-3-2-8, Cu^+2 0.7 mM", "result": "—"}, {"measurement": "growth", "setting": "[1]; L20105-3-2-8, Cu^+2 0.75 mM", "result": "—"}, {"measurement": "growth", "setting": "[1]; L20105-3-2-8, Cu^+2 4 mM", "result": "—"}, {"measurement": "growth", "setting": "[1]; L20105-3-2-8, Cu^+2 8 mM", "result": "—"}, {"measurement": "growth", "setting": "[1]; L20105-3-2-12, Cu^+2 0.05 mM", "result": "++"}, {"measurement": "growth", "setting": "[1]; L20105-3-2-12, Cu^+2 0.15 mM", "result": "—"}, {"measurement": "growth", "setting": "[1]; L20105-3-2-12, Cu^+2 0.2 mM", "result": "—"}, {"measurement": "growth", "setting": "[1]; L20105-3-2-12, Cu^+2 0.25 mM", "result": "—"}, {"measurement": "growth", "setting": "[1]; L20105-3-2-12, Cu^+2 0.3 mM", "result": "—"}, {"measurement": "growth", "setting": "[1]; L20105-3-2-12, Cu^+2 0.35 mM", "result": "—"}, {"measurement": "growth", "setting": "[1]; L20105-3-2-12, Cu^+2 0.45 mM", "result": "—"}, {"measurement": "growth", "setting": "[1]; L20105-3-2-12, Cu^+2 0.5 mM", "result": "—"}, {"measurement": "growth", "setting": "[1]; L20105-3-2-12, Cu^+2 0.55 mM", "result": "—"}, {"measurement": "growth", "setting": "[1]; L20105-3-2-12, Cu^+2 0.6 mM", "result": "—"}, {"measurement": "growth", "setting": "[1]; L20105-3-2-12, Cu^+2 0.65 mM", "result": "—"}, {"measurement": "growth", "setting": "[1]; L20105-3-2-12, Cu^+2 0.7 mM", "result": "—"}, {"measurement": "growth", "setting": "[1]; L20105-3-2-12, Cu^+2 0.75 mM", "result": "—"}, {"measurement": "growth", "setting": "[1]; L20105-3-2-12, Cu^+2 4 mM", "result": "—"}, {"measurement": "growth", "setting": "[1]; L20105-3-2-12, Cu^+2 8 mM", "result": "—"}]}, {"smiles": "[K+].[K+].[O]=[Cr](=[O])([O-])[O][Cr](=[O])(=[O])[O-]", "note": "[K2Cr2O7]", "values": [{"measurement": "concentration inhibiting growth of strain #75", "setting": "[2]; medium with 0.3 M sucrose", "result": 100, "unit": "µM"}, {"measurement": "concentration inhibiting growth of strains with higher riboflavin production", "setting": "[2]; medium with 0.3 M sucrose", "result": 175, "unit": "µM"}, {"measurement": "concentration totally inhibiting growth of mutants with lower levels of riboflavin overproduction", "setting": "[2]; medium with 0.3 M sucrose", "result": 125, "unit": "µM"}, {"measurement": "effect of subinhibitory concentrations on flavinogenesis of all tested strains", "setting": "[2]; riboflavin overproducers and wild-type strains", "result": "stimulated flavinogenesis"}]}]}
